Experimental findings from ChEMBL document CHEMBL4387773, “Identification of potent, selective and orally bioavailable phenyl ((R)-3-phenylpyrrolidin-3-yl)sulfone analogues as RORγt inverse agonists” (Bioorg Med Chem Lett, 2019) are described below.

Some results are limits rather than exact numbers.

One data set deals with T1, Oxysterols receptor LXR-alpha (Homo sapiens, UniProt Q13133).
T1 sequence (Q13133 whole entry): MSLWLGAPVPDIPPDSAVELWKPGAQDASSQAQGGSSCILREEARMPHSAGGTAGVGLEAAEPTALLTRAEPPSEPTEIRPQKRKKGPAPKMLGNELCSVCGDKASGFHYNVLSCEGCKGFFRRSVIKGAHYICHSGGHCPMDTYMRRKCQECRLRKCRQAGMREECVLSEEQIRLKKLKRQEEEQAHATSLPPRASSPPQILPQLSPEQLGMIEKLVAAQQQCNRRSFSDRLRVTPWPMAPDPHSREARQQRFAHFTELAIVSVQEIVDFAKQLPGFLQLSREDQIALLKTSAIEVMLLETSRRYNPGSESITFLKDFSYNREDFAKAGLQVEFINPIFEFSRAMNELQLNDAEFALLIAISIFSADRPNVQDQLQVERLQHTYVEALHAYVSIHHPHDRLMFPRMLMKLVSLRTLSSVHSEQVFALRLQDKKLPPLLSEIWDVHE
The data set is described as follows: Transactivation of human GAL4-fused LXRalpha expressed in African green monkey CV1 cells.
Conditions: not given
Type of data set: cell-based.
Usually EC50 stands for the midpoint of the concentration-response curve. Molecule `O=C(O)[C@H]1[C@@H]2C[C@@H](C(=O)N3CC[C@](c4ccc(C(F)(C(F)(F)F)C(F)(F)F)cc4)(S(=O)(=O)c4ccc(F)cc4)C3)C[C@@H]21` returned an EC50 greater than 7.5 µM.
`O=C([C@H]1CC[C@H](CO)CC1)N1CC[C@](c2ccc(C(F)(C(F)(F)F)C(F)(F)F)cc2)(S(=O)(=O)c2ccc(F)cc2)C1`: the EC50 was greater than 7.5 µM.
The same measure, in the same setting: with `COC1(C(=O)N2CC[C@](c3ccc(C(F)(C(F)(F)F)C(F)(F)F)cc3)(S(=O)(=O)c3ccc(F)cc3)C2)CCS(=O)(=O)CC1` the figure was greater than 7.5 µM.
With `O=C(O)[C@H]1CC[C@H](C(=O)N2CC[C@](c3ccc(C(F)(C(F)(F)F)C(F)(F)F)cc3)(S(=O)(=O)c3ccc(F)cc3)C2)CC1`, the concentration giving a half-maximal response (EC50) was greater than 7.5 µM.

The target in the next data set is T2, Nuclear receptor ROR-beta (Homo sapiens, UniProt Q92753).
T2 sequence (Q92753 whole entry): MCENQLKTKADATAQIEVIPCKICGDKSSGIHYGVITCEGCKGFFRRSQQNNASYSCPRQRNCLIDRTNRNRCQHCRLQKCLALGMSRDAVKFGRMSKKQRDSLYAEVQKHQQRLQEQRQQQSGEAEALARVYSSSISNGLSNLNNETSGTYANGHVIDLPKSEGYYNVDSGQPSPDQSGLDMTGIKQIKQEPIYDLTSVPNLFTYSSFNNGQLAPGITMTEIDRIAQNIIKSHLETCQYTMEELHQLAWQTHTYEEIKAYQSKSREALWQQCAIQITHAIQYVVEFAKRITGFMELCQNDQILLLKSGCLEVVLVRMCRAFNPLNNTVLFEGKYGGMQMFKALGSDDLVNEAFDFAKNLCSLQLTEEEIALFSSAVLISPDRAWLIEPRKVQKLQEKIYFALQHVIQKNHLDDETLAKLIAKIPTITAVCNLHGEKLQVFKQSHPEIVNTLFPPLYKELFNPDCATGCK
Briefly: Inverse agonist activity at human Gal4-fused RORbeta LBD (200 to 559 residues) expressed in human Jurkat cells measured after 18 hrs by steady-glo luciferase reporter gene assay. It counts as cell-based.
Conditions: not given
In turn, `O=C(O)[C@H]1[C@@H]2C[C@@H](C(=O)N3CC[C@](c4ccc(C(F)(C(F)(F)F)C(F)(F)F)cc4)(S(=O)(=O)c4ccc(F)cc4)C3)C[C@@H]21` yielded an EC50 greater than 40 µM.
For the molecule `O=C([C@H]1CC[C@H](CO)CC1)N1CC[C@](c2ccc(C(F)(C(F)(F)F)C(F)(F)F)cc2)(S(=O)(=O)c2ccc(F)cc2)C1`, the 50% effective concentration (EC50) is greater than 40 µM.
Still for that read-out and setting: under `COC1(C(=O)N2CC[C@](c3ccc(C(F)(C(F)(F)F)C(F)(F)F)cc3)(S(=O)(=O)c3ccc(F)cc3)C2)CCS(=O)(=O)CC1` stands greater than 40 µM; under `O=C(O)[C@H]1CC[C@H](C(=O)N2CC[C@](c3ccc(C(F)(C(F)(F)F)C(F)(F)F)cc3)(S(=O)(=O)c3ccc(F)cc3)C2)CC1`, greater than 40 µM.

Tested on in the next data set: not listed separately
The data set is described as follows: Stability in mouse liver microsomes assessed as parent compound remaining after 10 mins. The note with it: liver microsomes, read-out: Stability. It counts as ADME, Microsome. (In general: Microsomes from liver hold many membrane-bound enzymes, among them those of drug oxidation.)
Regarding `O=C([C@H]1CC[C@H](CO)CC1)N1CC[C@](c2ccc(C(F)(C(F)(F)F)C(F)(F)F)cc2)(S(=O)(=O)c2ccc(F)cc2)C1`, the remaining at 10 min worked out at 63%.

Another data set deals with T3, PXR (Homo sapiens, UniProt O75469).
T3 sequence (O75469 whole entry): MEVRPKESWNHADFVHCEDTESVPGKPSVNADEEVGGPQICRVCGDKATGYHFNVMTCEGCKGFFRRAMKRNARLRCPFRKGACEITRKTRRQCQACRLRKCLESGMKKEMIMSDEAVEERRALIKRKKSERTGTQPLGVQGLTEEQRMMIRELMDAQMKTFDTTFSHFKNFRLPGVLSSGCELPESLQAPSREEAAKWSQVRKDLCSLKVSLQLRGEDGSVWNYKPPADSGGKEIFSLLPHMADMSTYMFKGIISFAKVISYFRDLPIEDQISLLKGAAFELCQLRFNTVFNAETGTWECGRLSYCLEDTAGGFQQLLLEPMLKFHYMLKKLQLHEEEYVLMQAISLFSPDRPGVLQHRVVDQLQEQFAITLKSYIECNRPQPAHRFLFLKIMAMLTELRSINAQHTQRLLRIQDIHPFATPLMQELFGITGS
Briefly: Transactivation of PXR (unknown origin) expressed in human HepG2 cells assessed as maximum receptor activation response relative to control. The note with it: human HepG2 cells that express PXR, read-out: %max. It counts as cell-based.
On to `O=C(O)[C@H]1[C@@H]2C[C@@H](C(=O)N3CC[C@](c4ccc(C(F)(C(F)(F)F)C(F)(F)F)cc4)(S(=O)(=O)c4ccc(F)cc4)C3)C[C@@H]21`, for which the Emax amounted to 15%.
For the molecule `O=C([C@H]1CC[C@H](CO)CC1)N1CC[C@](c2ccc(C(F)(C(F)(F)F)C(F)(F)F)cc2)(S(=O)(=O)c2ccc(F)cc2)C1`, the Emax stood at 8%.
Consider `COC1(C(=O)N2CC[C@](c3ccc(C(F)(C(F)(F)F)C(F)(F)F)cc3)(S(=O)(=O)c3ccc(F)cc3)C2)CCS(=O)(=O)CC1`, for which the Emax stood at 3%.

Tested on in the next data set: not listed separately
Briefly: Stability in human liver microsomes assessed as parent compound remaining after 10 mins. It counts as ADME, Microsome. The note with it: liver microsomes, read-out: Stability.
As for `O=C(O)[C@H]1[C@@H]2C[C@@H](C(=O)N3CC[C@](c4ccc(C(F)(C(F)(F)F)C(F)(F)F)cc4)(S(=O)(=O)c4ccc(F)cc4)C3)C[C@@H]21`, the remaining at 10 min was 100%.
As for `O=C([C@H]1CC[C@H](CO)CC1)N1CC[C@](c2ccc(C(F)(C(F)(F)F)C(F)(F)F)cc2)(S(=O)(=O)c2ccc(F)cc2)C1`, the remaining at 10 min was determined as 75%.
On to `O=C(O)[C@H]1CC[C@H](C(=O)N2CC[C@](c3ccc(C(F)(C(F)(F)F)C(F)(F)F)cc3)(S(=O)(=O)c3ccc(F)cc3)C2)CC1`, for which the remaining at 10 min was determined as 97%.

The next data set deals with T4, Oxysterols receptor LXR-beta (Homo sapiens, UniProt P55055).
T4 sequence (P55055 whole entry): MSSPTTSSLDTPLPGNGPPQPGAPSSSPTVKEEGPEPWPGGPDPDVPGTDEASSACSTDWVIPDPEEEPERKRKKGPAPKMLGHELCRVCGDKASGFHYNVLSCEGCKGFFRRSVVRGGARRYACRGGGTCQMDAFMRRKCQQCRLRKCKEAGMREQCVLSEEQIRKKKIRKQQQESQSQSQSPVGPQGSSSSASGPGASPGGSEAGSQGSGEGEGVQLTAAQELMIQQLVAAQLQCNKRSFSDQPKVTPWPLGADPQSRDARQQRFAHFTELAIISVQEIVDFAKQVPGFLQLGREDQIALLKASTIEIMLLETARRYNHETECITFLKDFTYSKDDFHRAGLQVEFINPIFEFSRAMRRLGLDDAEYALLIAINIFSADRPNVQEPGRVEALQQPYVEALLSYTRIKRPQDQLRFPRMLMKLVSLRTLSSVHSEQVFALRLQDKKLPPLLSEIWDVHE
Briefly: Transactivation of human GAL4-fused LXRbeta expressed in African green monkey CV1 cells. Type of data set: cell-based.
Conditions: not given
Consider `O=C(O)[C@H]1[C@@H]2C[C@@H](C(=O)N3CC[C@](c4ccc(C(F)(C(F)(F)F)C(F)(F)F)cc4)(S(=O)(=O)c4ccc(F)cc4)C3)C[C@@H]21`, for which the EC50 was greater than 7.5 µM.
Molecule `O=C([C@H]1CC[C@H](CO)CC1)N1CC[C@](c2ccc(C(F)(C(F)(F)F)C(F)(F)F)cc2)(S(=O)(=O)c2ccc(F)cc2)C1` had an EC50 greater than 7.5 µM.
On the same count and under the same terms, with `COC1(C(=O)N2CC[C@](c3ccc(C(F)(C(F)(F)F)C(F)(F)F)cc3)(S(=O)(=O)c3ccc(F)cc3)C2)CCS(=O)(=O)CC1` the figure was greater than 7.5 µM; with `O=C(O)[C@H]1CC[C@H](C(=O)N2CC[C@](c3ccc(C(F)(C(F)(F)F)C(F)(F)F)cc3)(S(=O)(=O)c3ccc(F)cc3)C2)CC1`, greater than 7.5 µM.

The target in a further data set is T5, Nuclear receptor subfamily 1 group I member 2 (Homo sapiens, UniProt O75469).
T5 sequence (O75469 whole entry): T3 sequence (O75469 whole entry)
Briefly: Transactivation of PXR (unknown origin) expressed in human HepG2 cells. It counts as cell-based.
Conditions: not given
In turn, `O=C(O)[C@H]1[C@@H]2C[C@@H](C(=O)N3CC[C@](c4ccc(C(F)(C(F)(F)F)C(F)(F)F)cc4)(S(=O)(=O)c4ccc(F)cc4)C3)C[C@@H]21` returned a concentration giving a half-maximal response (EC50) greater than 50 µM.
Still for that read-out and setting: under `O=C([C@H]1CC[C@H](CO)CC1)N1CC[C@](c2ccc(C(F)(C(F)(F)F)C(F)(F)F)cc2)(S(=O)(=O)c2ccc(F)cc2)C1` stands greater than 50 µM; under `COC1(C(=O)N2CC[C@](c3ccc(C(F)(C(F)(F)F)C(F)(F)F)cc3)(S(=O)(=O)c3ccc(F)cc3)C2)CCS(=O)(=O)CC1`, greater than 50 µM.

The target in a further data set is T6, Nuclear receptor ROR-alpha (Homo sapiens, UniProt P35398).
T6 sequence (P35398 whole entry): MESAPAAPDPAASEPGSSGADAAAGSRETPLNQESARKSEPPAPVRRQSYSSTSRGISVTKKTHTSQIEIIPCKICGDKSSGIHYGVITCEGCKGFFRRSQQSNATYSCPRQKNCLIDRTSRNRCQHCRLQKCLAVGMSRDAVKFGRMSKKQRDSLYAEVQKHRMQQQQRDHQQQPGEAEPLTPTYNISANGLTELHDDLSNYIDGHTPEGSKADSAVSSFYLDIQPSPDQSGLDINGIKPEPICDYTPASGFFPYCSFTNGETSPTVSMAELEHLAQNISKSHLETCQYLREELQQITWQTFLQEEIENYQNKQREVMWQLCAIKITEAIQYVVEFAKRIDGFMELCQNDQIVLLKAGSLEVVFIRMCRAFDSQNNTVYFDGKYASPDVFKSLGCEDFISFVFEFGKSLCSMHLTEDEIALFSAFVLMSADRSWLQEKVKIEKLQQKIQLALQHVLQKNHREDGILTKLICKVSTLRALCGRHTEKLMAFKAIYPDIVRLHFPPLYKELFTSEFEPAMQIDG
The data set is described as follows: Inverse agonist activity at human Gal4-fused RORalpha LBD (272 to 556 residues) expressed in human Jurkat cells measured after 18 hrs by steady-glo luciferase reporter gene assay. It counts as cell-based.
Conditions: not given
On the technique in general: Reporter assays use an easily measured gene product as a stand-in for the process of interest.
`O=C(O)[C@H]1[C@@H]2C[C@@H](C(=O)N3CC[C@](c4ccc(C(F)(C(F)(F)F)C(F)(F)F)cc4)(S(=O)(=O)c4ccc(F)cc4)C3)C[C@@H]21`: the concentration giving a half-maximal response (EC50) is greater than 40 µM.
`O=C([C@H]1CC[C@H](CO)CC1)N1CC[C@](c2ccc(C(F)(C(F)(F)F)C(F)(F)F)cc2)(S(=O)(=O)c2ccc(F)cc2)C1` displayed a concentration for a half-maximal effect (EC50) greater than 40 µM.
Turning to `COC1(C(=O)N2CC[C@](c3ccc(C(F)(C(F)(F)F)C(F)(F)F)cc3)(S(=O)(=O)c3ccc(F)cc3)C2)CCS(=O)(=O)CC1`, the concentration giving a half-maximal response (EC50) was greater than 40 µM.
The same measure, in the same setting: with `O=C(O)[C@H]1CC[C@H](C(=O)N2CC[C@](c3ccc(C(F)(C(F)(F)F)C(F)(F)F)cc3)(S(=O)(=O)c3ccc(F)cc3)C2)CC1` the figure was greater than 40 µM.
